#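 Growth conditions: 96-well plates. Treatment: test compound, 48 hours, 5 concentrations. Analysis: linear interpolation between bracketing concentrations; unreached endpoints set to highest concentration. Here, GI50 denotes the concentration required for 50% inhibition of growth. TGI is the concentration that stops growth completely.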
# Key:
# Assay in all cases: DTP human tumour cell line panel, 48 h
# 786-0 renal = test system: 786-0 renal
# A549 NSCLC = test system: A549 NSCLC
# ACHN renal = test system: ACHN renal
# BT-549 breast = test system: BT-549 breast
# CAKI-1 renal = test system: CAKI-1 renal
# CCRF-CEM leukemia = test system: CCRF-CEM leukemia
# COLO 205 colon = test system: COLO 205 colon
# DU-145 prostate = test system: DU-145 prostate
# EKVX NSCLC = test system: EKVX NSCLC
# HCC-2998 colon = test system: HCC-2998 colon
# HCT-116 colon = test system: HCT-116 colon
# HCT-15 colon = test system: HCT-15 colon
# HL-60(TB) leukemia = test system: HL-60(TB) leukemia
# HOP-62 NSCLC = test system: HOP-62 NSCLC
# HOP-92 NSCLC = test system: HOP-92 NSCLC
# HS 578T breast = test system: HS 578T breast
# HT29 colon = test system: HT29 colon
# IGROV1 ovarian = test system: IGROV1 ovarian
# K-562 leukemia = test system: K-562 leukemia
# KM12 colon = test system: KM12 colon
# LOX IMVI melanoma = test system: LOX IMVI melanoma
# M14 melanoma = test system: M14 melanoma
# MALME-3M melanoma = test system: MALME-3M melanoma
# MCF7 breast = test system: MCF7 breast
# MDA-MB-231 breast = test system: MDA-MB-231 breast
# MDA-MB-435 = test system: MDA-MB-435
# MOLT-4 leukemia = test system: MOLT-4 leukemia
# NCI-H226 lung = test system: NCI-H226 lung
# NCI-H23 lung = test system: NCI-H23 lung
# NCI-H460 lung = test system: NCI-H460 lung
# NCI-H522 lung = test system: NCI-H522 lung
# NCI/ADR-RES ovarian = test system: NCI/ADR-RES ovarian
# OVCAR-4 ovarian = test system: OVCAR-4 ovarian
# OVCAR-5 ovarian = test system: OVCAR-5 ovarian
# OVCAR-8 ovarian = test system: OVCAR-8 ovarian
# PC-3 prostate = test system: PC-3 prostate
# RPMI-8226 leukemia = test system: RPMI-8226 leukemia
# RXF 393 renal = test system: RXF 393 renal
# SF-268 CNS = test system: SF-268 CNS
# SF-295 CNS = test system: SF-295 CNS
# SF-539 CNS = test system: SF-539 CNS
# SK-MEL-2 melanoma = test system: SK-MEL-2 melanoma
# SK-MEL-28 melanoma = test system: SK-MEL-28 melanoma
# SK-MEL-5 melanoma = test system: SK-MEL-5 melanoma
# SK-OV-3 ovarian = test system: SK-OV-3 ovarian
# SN12C renal = test system: SN12C renal
# SNB-19 CNS = test system: SNB-19 CNS
# SNB-75 CNS = test system: SNB-75 CNS
# SR leukemia = test system: SR leukemia
# SW-620 colon = test system: SW-620 colon
# T-47D breast = test system: T-47D breast
# TK-10 renal = test system: TK-10 renal
# U251 CNS = test system: U251 CNS
# UACC-257 melanoma = test system: UACC-257 melanoma
# UACC-62 melanoma = test system: UACC-62 melanoma
# UO-31 renal = test system: UO-31 renal
structure (smiles),measurement,setting,value
CS(=O)(=O)Nc1cc(-c2ccc3ncc(C#N)c(NCc4cccc(F)c4)c3c2)cnc1Cl,GI50,786-0 renal,310 nM
same,TGI,786-0 renal,5520 nM
same,GI50,A549 NSCLC,695 nM
same,TGI,A549 NSCLC,6800 nM
same,GI50,ACHN renal,570 nM
same,TGI,ACHN renal,> 45100 nM
same,GI50,BT-549 breast,73.6 nM
same,TGI,BT-549 breast,678 nM
same,GI50,CAKI-1 renal,163 nM
same,TGI,CAKI-1 renal,2040 nM
same,GI50,CCRF-CEM leukemia,164 nM
same,TGI,CCRF-CEM leukemia,20400 nM
same,GI50,COLO 205 colon,357 nM
same,TGI,COLO 205 colon,1650 nM
same,GI50,DU-145 prostate,336 nM
same,TGI,DU-145 prostate,11800 nM
same,GI50,EKVX NSCLC,381 nM
same,TGI,EKVX NSCLC,5130 nM
same,GI50,HCC-2998 colon,367 nM
same,TGI,HCC-2998 colon,6560 nM
same,GI50,HCT-116 colon,277 nM
same,TGI,HCT-116 colon,1480 nM
same,GI50,HCT-15 colon,289 nM
same,TGI,HCT-15 colon,11800 nM
same,GI50,HL-60(TB) leukemia,330 nM
same,TGI,HL-60(TB) leukemia,4450 nM
same,GI50,HOP-62 NSCLC,220 nM
same,TGI,HOP-62 NSCLC,4150 nM
same,GI50,HOP-92 NSCLC,36.3 nM
same,TGI,HOP-92 NSCLC,459 nM
same,GI50,HS 578T breast,51.3 nM
same,TGI,HS 578T breast,451 nM
same,GI50,HT29 colon,502 nM
same,TGI,HT29 colon,4640 nM
same,GI50,IGROV1 ovarian,122 nM
same,TGI,IGROV1 ovarian,972 nM
same,GI50,K-562 leukemia,274 nM
same,TGI,K-562 leukemia,> 59300 nM
same,GI50,KM12 colon,347 nM
same,TGI,KM12 colon,2610 nM
same,GI50,LOX IMVI melanoma,200 nM
same,TGI,LOX IMVI melanoma,1110 nM
same,GI50,M14 melanoma,254 nM
same,TGI,M14 melanoma,5860 nM
same,GI50,MALME-3M melanoma,79.3 nM
same,TGI,MALME-3M melanoma,559 nM
same,GI50,MCF7 breast,118 nM
same,TGI,MCF7 breast,9850 nM
same,GI50,MDA-MB-231 breast,350 nM
same,TGI,MDA-MB-231 breast,4960 nM
same,GI50,MDA-MB-435,258 nM
same,TGI,MDA-MB-435,9500 nM
same,GI50,MOLT-4 leukemia,218 nM
same,TGI,MOLT-4 leukemia,1980 nM
same,GI50,NCI-H226 lung,363 nM
same,TGI,NCI-H226 lung,22800 nM
same,GI50,NCI-H23 lung,348 nM
same,TGI,NCI-H23 lung,13600 nM
same,GI50,NCI-H460 lung,509 nM
same,TGI,NCI-H460 lung,11400 nM
same,GI50,NCI-H522 lung,369 nM
same,TGI,NCI-H522 lung,7860 nM
same,GI50,NCI/ADR-RES ovarian,1990 nM
same,TGI,NCI/ADR-RES ovarian,40300 nM
same,GI50,OVCAR-4 ovarian,309 nM
same,TGI,OVCAR-4 ovarian,> 27700 nM
same,GI50,OVCAR-5 ovarian,473 nM
same,TGI,OVCAR-5 ovarian,12000 nM
same,GI50,OVCAR-8 ovarian,366 nM
same,TGI,OVCAR-8 ovarian,16400 nM
same,GI50,PC-3 prostate,284 nM
same,TGI,PC-3 prostate,5710 nM
same,GI50,RPMI-8226 leukemia,287 nM
same,TGI,RPMI-8226 leukemia,2160 nM
same,GI50,RXF 393 renal,110 nM
same,TGI,RXF 393 renal,784 nM
same,GI50,SF-268 CNS,196 nM
same,TGI,SF-268 CNS,3610 nM
same,GI50,SF-295 CNS,237 nM
same,TGI,SF-295 CNS,2430 nM
same,GI50,SF-539 CNS,195 nM
same,TGI,SF-539 CNS,1850 nM
same,GI50,SK-MEL-2 melanoma,122 nM
same,TGI,SK-MEL-2 melanoma,374 nM
same,GI50,SK-MEL-28 melanoma,191 nM
same,TGI,SK-MEL-28 melanoma,4690 nM
same,GI50,SK-MEL-5 melanoma,179 nM
same,TGI,SK-MEL-5 melanoma,403 nM
same,GI50,SK-OV-3 ovarian,263 nM
same,TGI,SK-OV-3 ovarian,1760 nM
same,GI50,SN12C renal,278 nM
same,TGI,SN12C renal,32400 nM
same,GI50,SNB-19 CNS,292 nM
same,TGI,SNB-19 CNS,11000 nM
same,GI50,SNB-75 CNS,34.3 nM
same,TGI,SNB-75 CNS,448 nM
same,GI50,SR leukemia,112 nM
same,TGI,SR leukemia,2240 nM
same,GI50,SW-620 colon,344 nM
same,TGI,SW-620 colon,10300 nM
same,GI50,T-47D breast,63.5 nM
same,TGI,T-47D breast,1460 nM
same,GI50,TK-10 renal,141 nM
same,TGI,TK-10 renal,1220 nM
same,GI50,U251 CNS,197 nM
same,TGI,U251 CNS,2680 nM
same,GI50,UACC-257 melanoma,335 nM
same,TGI,UACC-257 melanoma,7140 nM
same,GI50,UACC-62 melanoma,121 nM
same,TGI,UACC-62 melanoma,1190 nM
same,GI50,UO-31 renal,162 nM
same,TGI,UO-31 renal,> 21500 nM
